Measured values published in PubChem BioAssay AID1963965 (Molecular Pharmacology Branch, DTP, NCI, 2024).

System: 996289-038-R-J1-PDC spheroid viability
Assay: Anticancer human tumor 996289-038-R-J1-PDC patient-derived colon adenocarcinoma cell line growth inhibition [PI3K]
Conditions: spheroids with HUVEC and MSC; for viability, T/C: stronger effect = lower value; active means viability on the fitted dose curve at most 10% of control; inactive means the rest
Outline: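 Agents were dosed from a top concentration near clinical Cmax (otherwise 10 microM) in half-log decrements, alone or combined with PI3K inhibitors. The spheroids contain tumor cells plus endothelial (HUVEC) and MSC stroma; viability is measured.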

[1] = curve of first compound, second compound 0.0316 µM
[2] = curve of first compound, second compound 0.1 µM
[3] = curve of first compound, second compound 0.316 µM
[4] = curve of first compound, second compound 1 µM
[5] = second compound 0.0316 µM, first compound 0.0316 µM
[6] = second compound 0.0316 µM, first compound 0.1 µM
[7] = second compound 0.0316 µM, first compound 0.316 µM
[8] = second compound 0.0316 µM, first compound 1 µM
[9] = second compound 0.0316 µM, first compound 3.16 µM
[10] = second compound 0.0316 µM, first compound 10 µM
[11] = second compound 0.1 µM, first compound 0.0316 µM
[12] = second compound 0.1 µM, first compound 0.1 µM
[13] = second compound 0.1 µM, first compound 0.316 µM
[14] = second compound 0.1 µM, first compound 1 µM
[15] = second compound 0.1 µM, first compound 3.16 µM
[16] = second compound 0.1 µM, first compound 10 µM
[17] = second compound 0.316 µM, first compound 0.0316 µM
[18] = second compound 0.316 µM, first compound 0.1 µM
[19] = second compound 0.316 µM, first compound 0.316 µM
[20] = second compound 0.316 µM, first compound 1 µM
[21] = second compound 0.316 µM, first compound 3.16 µM
[22] = second compound 0.316 µM, first compound 10 µM
[23] = second compound 1 µM, first compound 0.0316 µM
[24] = second compound 1 µM, first compound 0.1 µM
[25] = second compound 1 µM, first compound 0.316 µM
[26] = second compound 1 µM, first compound 1 µM
[27] = second compound 1 µM, first compound 3.16 µM
[28] = second compound 1 µM, first compound 10 µM
[29] = curve of first compound, second compound 0.00316 µM
[30] = curve of first compound, second compound 0.01 µM
[31] = second compound 0.00316 µM, first compound 0.0316 µM
[32] = second compound 0.00316 µM, first compound 0.1 µM
[33] = second compound 0.00316 µM, first compound 0.316 µM
[34] = second compound 0.00316 µM, first compound 1 µM
[35] = second compound 0.00316 µM, first compound 3.16 µM
[36] = second compound 0.00316 µM, first compound 10 µM
[37] = second compound 0.01 µM, first compound 0.0316 µM
[38] = second compound 0.01 µM, first compound 0.1 µM
[39] = second compound 0.01 µM, first compound 0.316 µM
[40] = second compound 0.01 µM, first compound 1 µM
[41] = second compound 0.01 µM, first compound 3.16 µM
[42] = second compound 0.01 µM, first compound 10 µM
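Further: spheroids exposed to compounds for seven days before viability read.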
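Wherever viability, T/C is given: luminescence used as a proxy for viable cell amount; percent viability relative to DMSO vehicle control as 100%.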

C#Cc1c(F)ccc2cc(O)cc(-c3ncc4c(N5CC6CCC(C5)N6)nc(OCC56CCCN5CC(F)C6)nc4c3F)c12 (stereo not drawn)
inactive: viability, T/C (compound 0.0316 µM) 90.4% [middle of 4 runs] | viability, T/C (compound 0.1 µM) 83.8% [middle of 4 runs] | viability, T/C (compound 0.316 µM) 70.2% [middle of 4 runs] | viability, T/C (compound 1 µM) 52.4% [middle of 4 runs] | viability, T/C (compound 3.16 µM) 44.8% [middle of 4 runs] | viability, T/C (compound 10 µM) 37.7% [middle of 4 runs]
1.79 µM [middle of 4 runs]: IC50 (curve of compound)

CC1(C)CCC(CN2CCN(c3ccc(C(=O)NS(=O)(=O)c4ccc(NCC5CCOCC5)c([N+](=O)[O-])c4)c(Oc4cnc5[nH]ccc5c4)c3)CC2)=C(c2ccc(Cl)cc2)C1 + Cc1nc(NC(=O)N2CCCC2C(N)=O)sc1-c1ccnc(C(C)(C)C(F)(F)F)c1
9.83 µM: IC50 [1]
6.15 µM: IC50 [4]
8.31 µM: IC50 [3]
8.62 µM: IC50 [2]
inactive: viability, T/C [5] 94% | viability, T/C [6] 91.8% | viability, T/C [7] 105% | viability, T/C [8] 110% | viability, T/C [9] 96.9% | viability, T/C [10] 49.3% | viability, T/C [11] 95.2% | viability, T/C [12] 102% | viability, T/C [13] 88.1% | viability, T/C [14] 102% | viability, T/C [15] 105% | viability, T/C [16] 42.8% | viability, T/C [17] 88.8% | viability, T/C [18] 84.9% | viability, T/C [19] 95.9% | viability, T/C [20] 93.2% | viability, T/C [21] 92.5% | viability, T/C [22] 42.1% | viability, T/C [23] 68.6% | viability, T/C [24] 83.4% | viability, T/C [25] 67.8% | viability, T/C [26] 82.6% | viability, T/C [27] 75.8% | viability, T/C [28] 31.6% | viability, T/C (second compound 3.16 µM, first compound 0.0316 µM) 66.3% | viability, T/C (second compound 3.16 µM, first compound 0.1 µM) 60.9% | viability, T/C (second compound 3.16 µM, first compound 0.316 µM) 60.4% | viability, T/C (second compound 3.16 µM, first compound 1 µM) 61% | viability, T/C (second compound 3.16 µM, first compound 3.16 µM) 62.6% | viability, T/C (second compound 3.16 µM, first compound 10 µM) 29.3% | viability, T/C (second compound 10 µM, first compound 0.0316 µM) 34.9% | viability, T/C (second compound 10 µM, first compound 0.1 µM) 41.8% | viability, T/C (second compound 10 µM, first compound 0.316 µM) 42.2% | viability, T/C (second compound 10 µM, first compound 1 µM) 54.4% | viability, T/C (second compound 10 µM, first compound 3.16 µM) 45.1% | viability, T/C (second compound 10 µM, first compound 10 µM) 15.4%
< 0.0316 µM: IC50 (curve of first compound, second compound 10 µM)
4.84 µM: IC50 (curve of first compound, second compound 3.16 µM)

C[C@@H](NC(=O)c1ncnc(N)c1Cl)c1ncc(C(=O)Nc2cc(C(F)(F)F)c(Cl)cn2)s1 + COc1c(OCCCN2CCOCC2)ccc2c3n(c(=NC(=O)c4cnc(N)nc4)nc12)CCN3
> 10 µM: IC50 [29] | IC50 [30] | IC50 [1] | IC50 [2]
inactive: viability, T/C [31] 89.7% | viability, T/C [32] 88% | viability, T/C [33] 95.1% | viability, T/C [34] 112% | viability, T/C [35] 131% | viability, T/C [36] 136% | viability, T/C [37] 96.6% | viability, T/C [38] 87% | viability, T/C [39] 96.2% | viability, T/C [40] 116% | viability, T/C [41] 98% | viability, T/C [42] 109% | viability, T/C [5] 94.3% | viability, T/C [6] 78.9% | viability, T/C [7] 86.7% | viability, T/C [8] 81.9% | viability, T/C [9] 92.7% | viability, T/C [10] 77.8% | viability, T/C [11] 68.7% | viability, T/C [12] 57.1% | viability, T/C [13] 69.2% | viability, T/C [14] 67.7% | viability, T/C [15] 71.3% | viability, T/C [16] 58.7% | viability, T/C [17] 42% | viability, T/C [18] 36.2% | viability, T/C [19] 35.7% | viability, T/C [20] 52.9% | viability, T/C [21] 43.3% | viability, T/C [22] 37.3% | viability, T/C [23] 22.3% | viability, T/C [24] 16.1% | viability, T/C [25] 19.3% | viability, T/C [26] 21.7% | viability, T/C [27] 29% | viability, T/C [28] 22.6%
< 0.0316 µM: IC50 [3] | IC50 [4]

C=CC(=O)N1CCN(c2nc(=O)n(-c3c(C)ccnc3C(C)C)c3nc(-c4c(O)cccc4F)c(F)cc23)C(C)C1 (stereo not drawn) + CC(Nc1ccc2c(c1)OCCn1cc(N3C(=O)OCC3C(F)F)nc1-2)C(N)=O
> 10 µM: IC50 [29] | IC50 [30] | IC50 [1] | IC50 [2] | IC50 [3] | IC50 [4]
inactive: viability, T/C [31] 91.2% | viability, T/C [32] 92.7% | viability, T/C [33] 106% | viability, T/C [34] 112% | viability, T/C [35] 113% | viability, T/C [36] 106% | viability, T/C [37] 97.8% | viability, T/C [38] 96.7% | viability, T/C [39] 112% | viability, T/C [40] 100% | viability, T/C [41] 118% | viability, T/C [42] 118% | viability, T/C [5] 88.7% | viability, T/C [6] 106% | viability, T/C [7] 95.3% | viability, T/C [8] 105% | viability, T/C [9] 97.3% | viability, T/C [10] 98.8% | viability, T/C [11] 87.5% | viability, T/C [12] 81.9% | viability, T/C [13] 87.8% | viability, T/C [14] 98.9% | viability, T/C [15] 85.4% | viability, T/C [16] 83% | viability, T/C [17] 79.4% | viability, T/C [18] 67.7% | viability, T/C [19] 75.1% | viability, T/C [20] 80.9% | viability, T/C [21] 77.1% | viability, T/C [22] 77.7% | viability, T/C [23] 82.2% | viability, T/C [24] 50.2% | viability, T/C [25] 60.2% | viability, T/C [26] 59.1% | viability, T/C [27] 62.6% | viability, T/C [28] 67.7%
